One assay addresses T1, active mouse DPP1 enzyme (Mus musculus, UniProt P97821).
T1 construct: Each subunit is composed of an N-terminal fragment, a heavy chain and a light chain; purchased R&D Systems
The experiment in a line: Mouse DPP1 Enzyme IC50 Assay. It is filed as biochemical. The procedure: Example 96: Mouse DPP1 Enzyme IC50 Assay
Test articles were applied to active mouse DPP1 enzyme (R&D Systems; Minneapolis, MN) in Assay Buffer (50 mM MES pH 5.5, 50 mM NaCl, 5 mM DTT) in a total reaction volume of 125 μL. 25 μL of compound in Assay Buffer plus […] was first added to 50 μL of active mouse DPP1 enzyme at a concentration of 62.5 pg/μL and allowed to pre-incubate for 10 minutes at 37° C. after which 50 μL of […] H-Gly-Arg-AMC substrate (Bachem; St. Torrance, CA) was added, giving final substrate concentration of 400 µM and a final DMSO concentration of […]. Substrate cleavage was measured for 90 minutes at 37° C., with fluorescence at Excitation/Emission 350/450 nm measured every 5 minutes. DPP1 concentration was interpolated based on its activity relative to a standard curve of recombinant active mouse DPP enzyme. IC50 values for each compound were calculated via the XLFit (IDBS Version 5.3.1.3) Add-On to Microsoft Excel using the four parameter fit equation y=(A+((B−A)/(1+((C/x)^D)))), which appears as equation number 205 (4 Parameter Logistic Model or Sigmoidal Dose-Response Model) in XLFit. Default constraints were used for each Parameter. IC50 was defined as the compound concentration at which 50% of enzyme activity was inhibited when compared to the no-compound control.
In Table 2, *** represent average IC50≤5 nM, ** represents average IC50 in the range of 5-20 nM, and * represents average IC50 in the range of ≥20 nM, where the designations were made solely based on the average value without taking into account of the standard deviations.

A further assay addresses human DPP1 enzyme (Homo sapiens, UniProt P53634). The experiment in a line: Human DPP1 Enzyme IC50 Assay. It is filed as biochemical. The arrangement: was first proteolytically processed into its mature form using recombinant human cathepsin L; purchased R&D Systems. Put shortly:
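IC50 came from a four-parameter fit of activity relative to no-compound control, with fluorescence (Ex 350/Em 450 nm) read every 5 min for 90 min at 37 °C using 400 μM final H-Gly-Arg-AMC. Cathepsin L-matured human recombinant DPP1 was preincubated 10 min with compound at pH 6.0 (MES, DTT, 1% DMSO).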

The next assay has as its target DPP1 in HL-60 cells (Homo sapiens, UniProt P53634). Briefly: DPP1 Cell IC50 assay. The assay is classed as cell-based. The arrangement: host or cells: HL-60 cells. The note with it: 60 min pre-incubation, H-Gly-Phe-AFC substrate, average of n runs. Put shortly: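 Intracellular DPP1 activity read as AFC fluorescence (Ex/Em 400/505 nm) after 30 min with H-Gly-Phe-AFC (500 μM stock), following 60 min compound pre-incubation at 37° C with HL-60 cells at 5×10^5 live cells per mL in PBS. IC50 by 4-parameter fit against DMSO-only controls.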

Setting [1] is: active mouse DPP1 enzyme, H-Gly-Arg-AMC substrate, 10 minutes pre-incubation at 37° C., pH 5.5, average of n runs, read-out: Avg. IC50 (Mouse DPP1 enzyme IC50 value ranges).
Setting [2] is: activated recombinant human DPP1, 400 μM H-Gly-Arg-AMC, 10 minutes pre-incubation at 37° C., pH 6.0, average of n runs, read-out: Avg. IC50 (Human DPP1 enzyme IC50 value ranges).
Setting [3] is: read-out: Avg. IC50 (DPP1 Cell IC50 value ranges).

The results in this text go back to US20260008760A1, “DIPEPTIDYL PEPTIDASE 1 INHIBITORS AND USES THEREOF” (Insmed Incorporated, priority 2024, published 2026).

The structures appear in SMILES notation. Where two headings read alike, the source gives them in different places. Where only a bound is given, the exact number is not on record here.

Chain of human DPP1 enzyme (P53634 25-134 limits assumed): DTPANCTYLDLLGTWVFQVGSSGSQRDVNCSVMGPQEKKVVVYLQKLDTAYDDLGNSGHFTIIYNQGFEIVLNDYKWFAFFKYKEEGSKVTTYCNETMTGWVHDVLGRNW
Chain of human DPP1 enzyme (P53634 231-394 limits assumed): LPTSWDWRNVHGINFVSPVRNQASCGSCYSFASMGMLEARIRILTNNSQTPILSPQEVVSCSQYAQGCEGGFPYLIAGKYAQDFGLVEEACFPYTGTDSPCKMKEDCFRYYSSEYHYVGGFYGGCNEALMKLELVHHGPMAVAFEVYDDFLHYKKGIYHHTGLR
Chain of human DPP1 enzyme (P53634 395-463 limits assumed): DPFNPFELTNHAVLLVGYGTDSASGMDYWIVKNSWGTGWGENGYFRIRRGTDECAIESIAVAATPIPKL
T1 sequence (P97821 25-134 limits assumed): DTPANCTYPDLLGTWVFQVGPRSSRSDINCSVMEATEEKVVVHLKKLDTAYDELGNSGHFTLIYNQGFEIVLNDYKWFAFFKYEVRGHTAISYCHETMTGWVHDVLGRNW
T1 sequence (P97821 231-393 limits assumed): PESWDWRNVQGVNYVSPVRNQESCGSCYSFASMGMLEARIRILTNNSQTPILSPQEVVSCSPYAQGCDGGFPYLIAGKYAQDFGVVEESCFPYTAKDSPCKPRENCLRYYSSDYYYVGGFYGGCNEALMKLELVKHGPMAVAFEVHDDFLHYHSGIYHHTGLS
T1 sequence (P97821 394-462 limits assumed): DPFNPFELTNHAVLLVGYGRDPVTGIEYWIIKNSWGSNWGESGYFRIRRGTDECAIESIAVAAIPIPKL
Chain of DPP1 in HL-60 cells (P53634 25-463): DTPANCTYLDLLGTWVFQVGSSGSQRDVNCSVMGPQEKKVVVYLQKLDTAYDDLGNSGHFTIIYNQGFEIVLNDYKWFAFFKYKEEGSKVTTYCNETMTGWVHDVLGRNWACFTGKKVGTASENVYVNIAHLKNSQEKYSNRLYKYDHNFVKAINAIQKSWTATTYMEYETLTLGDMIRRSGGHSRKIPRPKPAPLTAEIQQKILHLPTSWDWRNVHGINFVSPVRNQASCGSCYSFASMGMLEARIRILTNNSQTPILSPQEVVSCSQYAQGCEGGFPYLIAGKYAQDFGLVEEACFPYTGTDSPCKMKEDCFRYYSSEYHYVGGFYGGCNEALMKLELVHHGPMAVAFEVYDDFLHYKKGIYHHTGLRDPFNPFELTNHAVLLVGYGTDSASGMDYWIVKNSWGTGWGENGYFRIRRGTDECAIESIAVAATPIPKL

A word on the IC50: it is the midpoint of a concentration-inhibition curve. With `N#C[C@H](Cc1cc2c(cc1F)-c1cc(C3COC3)c(F)cc1CO2)NC(=O)[C@@H]1CNCCCO1` [Compound B2, (2S)—N-{1-cyano-2-[2,8-difluoro-9-(oxetan-3-yl)-6H-benzo[c]chromen-3-yl]ethyl}-1,4-oxazepane-2-carboxamide], the values for the IC50 against active mouse DPP1 enzyme, on human DPP1 enzyme and on DPP1 in HL-60 cells (Avg. IC50 (DPP1 Cell IC50 value ranges)) were 5 to 20 nM, 5 to 15 nM and 1 to 2.5 nM, respectively.

Turning to `N#Cc1ccc2c(c1)COc1cc(CC(C#N)NC(=O)[C@@H]3CNCCCCO3)c(F)cc1-2` (stereo partly drawn) [Compound B7, (2S)—N-(1-cyano-2-(8-cyano-2-fluoro-6H-benzo[c]chromen-3-yl)ethyl)-1,4-oxazocane-2-carboxamide], the IC50 at active mouse DPP1 enzyme (setting [1]) was above 20 nM; on human DPP1 enzyme (setting [2]), above 15 nM; on DPP1 in HL-60 cells (setting [3]) it was above 2.5 nM.

Regarding `N#C[C@H](Cc1cc2c(cc1F)-c1cc(C3COC3)c(F)cc1CO2)NC(=O)[C@@H]1CNCCCCO1` [Compound B10-B], the IC50 at active mouse DPP1 enzyme (setting [1]) was below 5 nM; at human DPP1 enzyme (setting [2]), 5 to 15 nM; on DPP1 in HL-60 cells (setting [3]), 1 to 2.5 nM.

Take `CO[C@@H]1CCNC[C@@H](C(=O)N[C@H](C#N)Cc2ccc(-c3ccc(C#N)cc3)cc2F)OC1` [Compound F4, (2S,7R)—N—((S)-1-cyano-2-(4′-cyano-3-fluoro-[1,1′-biphenyl]-4-yl)ethyl)-7-methoxy-1,4-oxazocane-2-carboxamide]: the IC50 on active mouse DPP1 enzyme (setting [1]) was below 5 nM; on human DPP1 enzyme (setting [2]), below 5 nM; on DPP1 in HL-60 cells (setting [3]), below 1 nM.
